How the values were obtained:
Format in all cases: in vivo
[1] = tested on: redroot pigweed (Amaranthus retroflexus, AMARE); test: Pre-emerge test, greenhouse herbicide activity screening; conditions: pre-emerge, 14 days after application, rating scale 0-100
Outline: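 Visual ratings on a 0-100 scale (0 no damage, 100 all plants dead) were taken at 14 days after treatment. Rates of 15-1000 g ai/ha in acetone, 187 l/ha, were sprayed onto soil one day after planting (pre-emerge) or onto 2-3 leaf plants with 0.25% v/v surfactant (post-emerge).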

[2] = tested on: barnyardgrass (Echinochloa crus-galli, ECHCG); test: as above; conditions: pre-emerge, 14 days after application, rating scale 0-100
Outline: (§1)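 Compounds in acetone were track-sprayed at 15-1000 g ai/ha (187 l/ha) on sandy loam pots: pre-emerge one day after seeding, post-emerge at 2-3 leaf stage with 0.25% v/v non-ionic surfactant. Phytotoxicity was rated 14 days later on a 0 (no damage) to 100 (complete death) scale.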

[3] = tested on: green foxtail (Setaria viridis, SETVI); test: as above; conditions: pre-emerge, 14 days after application, rating scale 0-100
Outline: as §1

[4] = tested on: ivyleaf morningglory (Ipomoea hederacea, IPOHE); test: as above; conditions: pre-emerge, 14 days after application, rating scale 0-100
Outline: as §1

[5] = tested on: johnsongrass (Sorghum halepense, SORHA); test: as above; conditions: pre-emerge, 14 days after application, rating scale 0-100
Outline: as §1

[6] = tested on: lambsquarters (Chenopodium album, CHEAL); test: as above; conditions: pre-emerge, 14 days after application, rating scale 0-100
Outline: as §1

[7] = tested on: large crabgrass (Digitaria sanguinalis, DIGSA); test: as above; conditions: pre-emerge, 14 days after application, rating scale 0-100
Outline: as §1

[8] = tested on: sicklepod (Cassia obtusifolia, CASOB); test: as above; conditions: pre-emerge, 14 days after application, rating scale 0-100
Outline: as §1

[9] = tested on: velvetleaf (Abutilon theophrasti, ABUTH); test: as above; conditions: pre-emerge, 14 days after application, rating scale 0-100
Outline: as §1

[10] = tested on: field corn (Zea mays L., var. Dekalb 535, CORN); test: Pre-emerge test, crop safety; conditions: pre-emerge, 14 days after application, rating scale 0-100
Outline: (§2)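 Fourteen days after spraying, crop and weed injury was graded visually from 0, no effect, to 100, every plant dead. Test substances were dissolved in acetone and applied at 15–1000 g ai/ha with a flat-fan nozzle. Application was either pre-emergence, one day after sowing, or post-emergence at the 2–3 leaf stage.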

[11] = tested on: upland rice (Oryza sp., var. Tebonnet, RICE); test: Pre-emerge test, crop safety; conditions: pre-emerge, 14 days after application, rating scale 0-100
Outline: as §2

[12] = tested on: barnyardgrass (Echinochloa crus-galli, ECHCG); test: Post-emerge test, greenhouse herbicide activity screening; conditions: post-emerge, 14 days after application, rating scale 0-100
Outline: (§3)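 Compounds in acetone were track-sprayed at 187 l/ha, 15–1000 g ai/ha, onto sandy loam pots. Pre-emerge seeds were sown one day before spraying, with surface watering afterwards. Post-emerge plants were at the 2–3 leaf stage and sprayed with 0.25% v/v non-ionic surfactant. Injury was rated 0–100 at 14 days.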

[13] = tested on: green foxtail (Setaria viridis, SETVI); test: as above; conditions: post-emerge, 14 days after application, rating scale 0-100
Outline: as §3

[14] = tested on: ivyleaf morningglory (Ipomoea hederacea, IPOHE); test: as above; conditions: post-emerge, 14 days after application, rating scale 0-100
Outline: as §3

[15] = tested on: johnsongrass (Sorghum halepense, SORHA); test: as above; conditions: post-emerge, 14 days after application, rating scale 0-100
Outline: as §3

[16] = tested on: lambsquarters (Chenopodium album, CHEAL); test: as above; conditions: post-emerge, 14 days after application, rating scale 0-100
Outline: as §3

[17] = tested on: large crabgrass (Digitaria sanguinalis, DIGSA); test: as above; conditions: post-emerge, 14 days after application, rating scale 0-100
Outline: as §3

[18] = tested on: redroot pigweed (Amaranthus retroflexus, AMARE); test: as above; conditions: post-emerge, 14 days after application
Outline: as §3

[19] = tested on: sicklepod (Cassia obtusifolia, CASOB); test: as above; conditions: post-emerge, 14 days after application, rating scale 0-100
Outline: as §3

[20] = tested on: velvetleaf (Abutilon theophrasti, ABUTH); test: as above; conditions: post-emerge, 14 days after application, rating scale 0-100
Outline: as §3

[21] = tested on: field corn (Zea mays L., var. Dekalb 535, CORN); test: Post-emerge test, crop safety; conditions: post-emerge, 14 days after application, rating scale 0-100
Outline: as §1

[22] = tested on: upland rice (Oryza sp., var. Tebonnet, RICE); test: Post-emerge test, crop safety; conditions: post-emerge, 14 days after application, rating scale 0-100
Outline: as §1

## COc1c(Cl)cc(F)c(-n2c(=O)cc(C(F)(F)F)n(C)c2=O)c1NN=CCCSC [15-14]
[1]; 63 g ai/ha
  phytotoxicity rating AMARE: 100
[1]; 250 g ai/ha
  phytotoxicity rating AMARE: 100
[2]; 63 g ai/ha
  phytotoxicity rating ECHCG: 100
[2]; 250 g ai/ha
  phytotoxicity rating ECHCG: 100
[3]; 63 g ai/ha
  phytotoxicity rating SETVI: 100
[3]; 250 g ai/ha
  phytotoxicity rating SETVI: 100
[4]; 63 g ai/ha
  phytotoxicity rating IPOHE: 100
[4]; 250 g ai/ha
  phytotoxicity rating IPOHE: 100
[5]; 63 g ai/ha
  phytotoxicity rating SORHA: 100
[5]; 250 g ai/ha
  phytotoxicity rating SORHA: 100
[6]; 63 g ai/ha
  phytotoxicity rating CHEAL: 100
[6]; 250 g ai/ha
  phytotoxicity rating CHEAL: 100
[7]; 63 g ai/ha
  phytotoxicity rating DIGSA: 100
[7]; 250 g ai/ha
  phytotoxicity rating DIGSA: 100
[8]; 63 g ai/ha
  phytotoxicity rating CASOB: 90
[8]; 250 g ai/ha
  phytotoxicity rating CASOB: 100
[9]; 63 g ai/ha
  phytotoxicity rating ABUTH: 100
[9]; 250 g ai/ha
  phytotoxicity rating ABUTH: 100
[10]; 63 g ai/ha
  phytotoxicity rating CORN: 40
[10]; 250 g ai/ha
  phytotoxicity rating CORN: 99
[11]; 63 g ai/ha
  phytotoxicity rating RICE: 99
[11]; 250 g ai/ha
  phytotoxicity rating RICE: 100
[12]; 63 g ai/ha
  Post-emerge Herbicidal Activity ECHCG (phytotoxicity rating): 20
[12]; 250 g ai/ha
  Post-emerge Herbicidal Activity ECHCG (phytotoxicity rating): 90
[13]; 63 g ai/ha
  Post-emerge Herbicidal Activity SETVI (phytotoxicity rating): 20
[13]; 250 g ai/ha
  Post-emerge Herbicidal Activity SETVI (phytotoxicity rating): 55
[14]; 63 g ai/ha
  Post-emerge Herbicidal Activity IPOHE (phytotoxicity rating): 100
[14]; 250 g ai/ha
  Post-emerge Herbicidal Activity IPOHE (phytotoxicity rating): 100
[15]; 63 g ai/ha
  Post-emerge Herbicidal Activity SORHA (phytotoxicity rating): 20
[15]; 250 g ai/ha
  Post-emerge Herbicidal Activity SORHA (phytotoxicity rating): 70
[16]; 63 g ai/ha
  Post-emerge Herbicidal Activity CHEAL (phytotoxicity rating): 100
[16]; 250 g ai/ha
  Post-emerge Herbicidal Activity CHEAL (phytotoxicity rating): 100
[17]; 63 g ai/ha
  Post-emerge Herbicidal Activity DIGSA (phytotoxicity rating): 20
[17]; 250 g ai/ha
  Post-emerge Herbicidal Activity DIGSA (phytotoxicity rating): 60
[18]; 63 g ai/ha, rating scale 0-100 (0 no damage, 100 complete death)
  Post-emerge Herbicidal Activity AMARE (phytotoxicity rating): 100
[18]; 250 g ai/ha, rating scale 0-100
  Post-emerge Herbicidal Activity AMARE (phytotoxicity rating): 100
[19]; 63 g ai/ha
  Post-emerge Herbicidal Activity CASOB (phytotoxicity rating): 80
[19]; 250 g ai/ha
  Post-emerge Herbicidal Activity CASOB (phytotoxicity rating): 100
[20]; 63 g ai/ha
  Post-emerge Herbicidal Activity ABUTH (phytotoxicity rating): 100
[20]; 250 g ai/ha
  Post-emerge Herbicidal Activity ABUTH (phytotoxicity rating): 100
[21]; 63 g ai/ha
  Post-emerge Herbicidal Activity CORN (crop damage rating): 20
[21]; 250 g ai/ha
  Post-emerge Herbicidal Activity CORN (crop damage rating): 65
[22]; 63 g ai/ha
  Post-emerge Herbicidal Activity RICE (crop damage rating): 40
[22]; 250 g ai/ha
  Post-emerge Herbicidal Activity RICE (crop damage rating): 50

Source: patent US6355799B1, “Substituted benzene compounds, process for their preparation, and herbicidal and defoliant compositions containing them” (ISK Americas Incorporated, priority 1997, dated 2002)
